Measured values published in ChEMBL document CHEMBL2074278, “Temocaprilat, a novel angiotensin-converting enzyme inhibitor, is excreted in bile via an ATP-dependent active transporter (cMOAT) that is deficient in Eisai hyperbilirubinemic mutant rats (EHBR)” (J Pharmacol Exp Ther, 1997).

What was measured:
Type in all cases: functional, cell membranes, Sprague-Dawley, Bile canalicular membrane vesicle
[1] = target: T1, ATP-binding cassette sub-family C member 2 (Rattus norvegicus, UniProt Q63120); assay: TP_TRANSPORTER: inhibition of DNP-SG uptake in bile canalicular membrane vesicles from SD rat
[2] = target: T1, ATP-binding cassette sub-family C member 2; assay: TP_TRANSPORTER: inhibition of Temocaprilat uptake in bile canalicular membrane vesicles from SD rat
[3] = substrate: O=C(O)CN1C[C@@H](c2cccs2)SC[C@H](N[C@@H](CCc2ccccc2)C(=O)O)C1=O; assay: TP_TRANSPORTER: uptake in bile canalicular membrane vesicles from SD rat

Molecule: O=C(O)CN1C[C@@H](c2cccs2)SC[C@H](N[C@@H](CCc2ccccc2)C(=O)O)C1=O [TEMOCAPRILAT]
- Ki [1]: 343 µM

Molecule: N[C@@H](CCC(=O)N[C@H](CSc1ccc([N+](=O)[O-])cc1[N+](=O)[O-])C(=O)NCC(=O)O)C(=O)O
- Ki [2]: 25.8 µM

B1: ATP-binding cassette sub-family C member 2 (Rattus norvegicus) (protein)
chain: MDKFCNSTFWDLSLLESPEADLPLCFEQTVLVWIPLGFLWLLAPWQLYSVYRSRTKRSSITKFYLAKQVFVVFLLILAAIDLSLALTEDTGQATVPPVRYTNPILYLCTWLLVLAVQHSRQWCVRKNSWFLSLFWILSVLCGVFQFQTLIRALLKDSKSNMAYSYLFFVSYGFQIVLLILTAFSGPSDSTQTPSVTASFLSSITFSWYDRTVLKGYKHPLTLEDVWDIDEGFKTRSVTSKFEAAMTKDLQKARQAFQRRLQKSQRKPEATLHGLNKKQSQSQDVLVLEEAKKKSEKTTKDYPKSWLIKSLFKTFHVVILKSFILKLIHDLLVFLNPQLLKLLIGFVKSSNSYVWFGYICAILMFAVTLIQSFCLQSYFQHCFVLGMCVRTTVMSSIYKKALTLSNLARKQYTIGETVNLMSVDSQKLMDATNYMQLVWSSVIQITLSIFFLWRELGPSILAGVGVMVLLIPVNGVLATKIRNIQVQNMKNKDKRLKIMNEILSGIKILKYFAWEPSFQEQVQGIRKKELKNLLRFGQLQSLLIFILQITPILVSVVTFSVYVLVDSANVLNAEKAFTSITLFNILRFPLSMLPMVTSSILQASVSVDRLERYLGGDDLDTSAIRRVSNFDKAVKFSEASFTWDPDLEATIQDVNLDIKPGQLVAVVGTVGSGKSSLVSAMLGEMENVHGHITIQGSTAYVPQQSWIQNGTIKDNILFGSEYNEKKYQQVLKACALLPDLEILPGGDMAEIGEKGINLSGGQKQRVSLARAAYQDADIYILDDPLSAVDAHVGKHIFNKVVGPNGLLAGKTRIFVTHGIHFLPQVDEIVVLGKGTILEKGSYRDLLDKKGVFARNWKTFMKHSGPEGEATVNNDSEAEDDDDGLIPTMEEIPEDAASLAMRRENSLRRTLSRSSRSSSRRGKSLKNSLKIKNVNVLKEKEKEVEGQKLIKKEFVETGKVKFSIYLKYLQAVGWWSILFIILFYGLNNVAFIGSNLWLSAWTSDSDNLNGTNNSSSHRDMRIGVFGALGLAQGICLLISTLWSIYACRNASKALHGQLLTNILRAPMRFFDTTPTGRIVNRFSGDISTVDDLLPQTLRSWMMCFFGIAGTLVMICMATPVFAIIIIPLSILYISVQVFYVATSRQLRRLDSVTKSPIYSHFSETVTGLPIIRAFEHQQRFLAWNEKQIDINQKCVFSWITSNRWLAIRLELVGNLVVFCSALLLVIYRKTLTGDVVGFVLSNALNITQTLNWLVRMTSEAETNIVAVERISEYINVENEAPWVTDKRPPADWPRHGEIQFNNYQVRYRPELDLVLKGITCNIKSGEKVGVVGRTGAGKSSLTNCLFRILESAGGQIIIDGIDVASIGLHDLRERLTIIPQDPILFSGSLRMNLDPFNKYSDEEVWRALELAHLRSFVSGLQLGLLSEVTEGGDNLSIGQRQLLCLGRAVLRKSKILVLDEATAAVDLETDSLIQTTIRKEFSQCTVITIAHRLHTIMDSDKIMVLDNGKIVEYGSPEELLSNRGSFYLMAKEAGIENVNHTEL
- Km [3]: 92.5 µM
